A short description of assay [1]: Antiproliferative activity against human LNCaP/AR cells assessed as reduction in cell growth measured after 3 days by CellTiter-Glo assay. The class given is functional, cell-based. Conditions: 72 h.
The test system of another assay is 4T1. Briefly: Antitumor activity against mouse 4T1 cells xenografted in BALB/c mouse model assessed as reduction in tumor growth at 100 microg/ml measured after 20 days relative to control. Format: functional. On the set-up: scale not given: the % may be the effect or the level left. As to conditions: dose 100 µg/ml; time 20 day.
A further assay has as its target Tubulin. Briefly: Inhibition of microtubule (unknown origin) polymerization. Format: protein-complex assay, Homo sapiens.
A further assay concerns DU-145. Briefly: Antimitotic activity against human DU-145 cells assessed as reduction in cell proliferation incubated for 72 hrs by alamar blue based fluorescence spectrophotometric analysis. The class given is functional. Conditions: DU-145, 72 h.
For the next assay, the system named is T47D. Briefly: Antiproliferative activity against human T47D cells assessed as reduction in cell growth incubated for 48 hrs by MTT assay. The class given is functional, cell-based.
For another assay, the system named is ZR-75-1. Briefly: Antiproliferative activity against human ZR-75-1 cells assessed as reduction in cell growth measured after 5 days by Celltiter-Glo assay. Format: functional, cell-based. As to conditions: ZR-75-1, 120 h.

In the case of `CC(O)(CS(=O)(=O)c1ccc(F)cc1)C(=O)Nc1ccc(C#N)c(C(F)(F)F)c1` (stereo unspecified) [BICALUTAMIDE], the concentration for half-maximal inhibition (IC50) in assay [1] came out at 0.16 µM.

As to `CO[C@H]1C(=O)[C@]2(C)[C@@H](OC)C[C@H]3OC[C@@]3(OC(C)=O)[C@H]2[C@H](OC(=O)c2ccccc2)[C@]2(O)C[C@H](OC(=O)[C@H](O)[C@@H](NC(=O)OC(C)(C)C)c3ccccc3)C(C)=C1C2(C)C` [CABAZITAXEL], the Activity with 4T1 was determined as 56.2%.

Take `CC(=O)O[C@@]12CO[C@@H]1C[C@H](O)[C@@]1(C)C(=O)[C@H](O)C3=C(C)[C@@H](OC(=O)[C@H](O)[C@@H](NC(=O)OC(C)(C)C)c4ccccc4)C[C@@](O)([C@@H](OC(=O)c4ccccc4)[C@H]21)C3(C)C` [DOCETAXEL ANHYDROUS]: the IC50 against Tubulin is 0.2 µM.

`C[C@]12CC[C@@H]3c4ccc(OC(=O)N(CCCl)CCCl)cc4CC[C@H]3[C@@H]1CC[C@@H]2OP(=O)(O)O` [ESTRAMUSTINE PHOSPHATE SODIUM]: the IC50 with DU-145 is 16 µM.

With `CC1(C)NC(=O)N(c2ccc([N+](=O)[O-])c(C(F)(F)F)c2)C1=O` [NILUTAMIDE], the IC50 with T47D worked out at 0.087 µM; in the assay on ZR-75-1, 0.075 µM.

The values above are taken from ChEMBL document CHEMBL5500321, “Synthesis and clinical application of small-molecule drugs approved to treat prostatic cancer” (Eur J Med Chem, 2023).
